Structures can show the parent of a compound that is named as a salt. Where two headings read alike, the source gives them in different places.
What was measured:
[1] = cited from earlier work
[2] = system: pseudo rabies virus (PRV)
HEK293 cells [3] = test: CTAB modifier screen: vg recovery in clarified lysate and loose resin affinity elution; format: cell-based; conditions: LCD, 0.5% w/v CTAB
Method: The modifiers were selected based on their potential to interfere with and inhibit non-specific binding of rAAV3B capsids to heparin sulfate proteoglycan receptors on cells and cell lysis debris. Using 10 mL cell culture aliquots, modifiers were delivered to the culture at the concentrations shown in Table 3 and mixed for 10 min at room temperature (RT) prior to addition of the CTAB lysis detergent. CTAB was added to a final concentration of 0.5% w/v. Fold improvement in productivity was calculated by dividing total vector genomes (vgs) measured by qPCR quantification of copies of the vector transgene in product produced by a test condition over total vgs produced using 0.5% octoxynol-9 and 0.2% DB as the control lysis and flocculation condition. Total vgs were measured in the clarified lysate and in eluate produced by loose resin affinity purification of the clarified lysate. Conditions which produced greater than 2-fold improvement are highlighted in bold in Table 3.

HEK293 cells [4] = format: cell-based; conditions: detergent 0.5% w/v, then 0.2% DB
HEK293 cells [5] = test: CHAPS evaluated at larger scale (1 L bioreactor); format: cell-based; conditions: final concentration 0.5% w/v
Method: CHAPS was identified as a potential detergent candidate in the small scale screens and was evaluated at a larger scale (1 L bioreactor) at a final concentration of 0.5% w/v.

[6] = system: Murine leukemia virus (MuLV)
[7] = 0.025% CTAB, 90 mins, value from titer plate
[8] = 0.05% CTAB, 90 mins, value from large volume plating
[9] = 0.25% CTAB, 90 mins, value from large volume plating
[10] = modifier 80 μM CSE (chondroitin sulfate E)
[11] = modifier 80 μM SOS (sucrose octasulfate)
[12] = modifier 400 ug/mL low molecular weight (LMW) Dextran
[13] = No modifier, LCD (approximately 12E+6 cells/mL), rAAV3B vector
[14] = 0.5% octoxynol-9, 90 mins, value from large volume plating

CCCCCCCCCCCCCCCC[N+](C)(C)C.[Br-] [CTAB, cetyltrimethylammonium bromide]
critical micelle concentration ([1]; in water in the presence of MgSO4): about 0.63 mM
critical micelle concentration ([1]; in water): about 1.04 mM
Process demonstrated viral removal or inactivation (Log reduction >1) ([2]; 0.025% CTAB, 90 mins): Did not demonstrate inactivation
Minimum reduction values Run 1 [2, 7]: 0.71 ± 0.44 Log
Minimum reduction values Run 2 [2, 7]: 0.71 ± 0.39 Log
Process demonstrated viral removal or inactivation (Log reduction >1) ([2]; 0.05% CTAB, 90 mins): Demonstrated inactivation
Minimum reduction values Run 1 [2, 8]: ≥4.31 ± 0.27 Log
Minimum reduction values Run 2 [2, 8]: ≥4.67 ± 0.21 Log
Process demonstrated viral removal or inactivation (Log reduction >1) ([2]; 0.25% CTAB, 90 mins): Demonstrated inactivation
Minimum reduction values Run 1 [2, 9]: ≥4.73 ± 0.25 Log
Minimum reduction values Run 2 [2, 9]: ≥4.73 ± 0.31 Log
fold productivity over octoxynol-9/DB control - affinity elution (HEK293 cells [3]; [10]): 0.05 fold
fold productivity over octoxynol-9/DB control - clarified lysate (HEK293 cells [3]; [10]): 1.22 fold
fold productivity over octoxynol-9/DB control - affinity elution (HEK293 cells [3]; [11]): 3.20 fold
fold productivity over octoxynol-9/DB control - clarified lysate (HEK293 cells [3]; [11]): 2.61 fold
fold productivity over octoxynol-9/DB control - affinity elution (HEK293 cells [3]; [12]): 1.20 fold
fold productivity over octoxynol-9/DB control - clarified lysate (HEK293 cells [3]; [12]): 0.14 fold
fold productivity over octoxynol-9/DB control - affinity elution (HEK293 cells [3]; modifier 6 mM ZnSO4): 2.41 fold
fold productivity over octoxynol-9/DB control - clarified lysate (HEK293 cells [3]; modifier 6 mM ZnSO4): 1.86 fold
fold productivity over octoxynol-9/DB control - affinity elution (HEK293 cells [3]; modifier 50 mM MgSO4): 7.77 fold
fold productivity over octoxynol-9/DB control - clarified lysate (HEK293 cells [3]; modifier 50 mM MgSO4): 3.21 fold
fold productivity over octoxynol-9/DB control - affinity elution (HEK293 cells [3]; no modifier): 3.81 fold
fold productivity over octoxynol-9/DB control - clarified lysate (HEK293 cells [3]; no modifier): 2.81 fold
Fold improvement over octoxynol-9 and DB control (capsid recovery in clarified lysate) (HEK293 cells [4]; No modifier, HCD (approximately 18E+6 cells/mL), rAAV3B vector): 2.8 fold
Fold improvement over octoxynol-9 and DB control (capsid recovery in clarified lysate) (HEK293 cells [4]; [13]): 1.6 fold

CCCCCCCCCCCCOS(=O)(=O)[O-].[Na+] [SDS, sodium dodecyl sulfate]
Fold improvement over octoxynol-9 and DB control (capsid recovery in clarified lysate) (HEK293 cells [4]; 0.2M Arginine modifier, LCD): 0.9 fold
Fold improvement over octoxynol-9 and DB control (capsid recovery in clarified lysate) (HEK293 cells [4]; 0.7M NaCl modifier, LCD): 0.2 fold
Fold improvement over octoxynol-9 and DB control (capsid recovery in clarified lysate) (HEK293 cells [4]; [13]): 0.1 fold

CCCCCCCCCCCC(=O)OCCOCCOCCOCCOCCOCCOCCOCCOCCOCCOCCOCCOCCOCCOCCOCCOCCOCCOCCOCCOCC(OCCOCCOCCOCCOCCOCCOCCOCCOCCOCCOCCOCCOCCOCCOCCOCCOCCOCCOCCOCCO)C1OCC(OCCOCCOCCOCCOCCOCCOCCOCCOCCOCCOCCOCCOCCOCCOCCOCCOCCOCCOCCOCCO)C1OCCOCCOCCOCCOCCOCCOCCOCCOCCOCCOCCOCCOCCOCCOCCOCCOCCOCCOCCOCCO (stereo not shown) [PS20, polysorbate 20]
Fold improvement over octoxynol-9 and DB control (capsid recovery in clarified lysate) (HEK293 cells [4]; 0.2M Arginine modifier, LCD): 1.8 fold
Fold improvement over octoxynol-9 and DB control (capsid recovery in clarified lysate) (HEK293 cells [4]; 0.7M NaCl modifier, LCD): 0.7 fold
Fold improvement over octoxynol-9 and DB control (capsid recovery in clarified lysate) (HEK293 cells [4]; [13]): 0.5 fold

CCCCCCCCCCCC(=O)N(C)CC(=O)[O-].[Na+] [sarkosyl]
Fold improvement over octoxynol-9 and DB control (capsid recovery in clarified lysate) (HEK293 cells [4]; [13]): 0.3 fold

C[C@H](CCC(=O)NCCC[N+](C)(C)CCCS(=O)(=O)[O-])[C@H]1CC[C@H]2[C@@H]3[C@H](O)C[C@@H]4C[C@H](O)CC[C@]4(C)[C@H]3C[C@H](O)[C@]12C [CHAPS, 3-[(3-cholamidopropyl)dimethylammonio]-1-propanesulfonate]
recovery improvement at larger scale (HEK293 cells [5]): failed to provide the same recovery improvement at large scale as at small scale
Fold improvement over octoxynol-9 and DB control (capsid recovery in clarified lysate) (HEK293 cells [4]; 0.2M Arginine modifier, LCD): 1.0 fold
Fold improvement over octoxynol-9 and DB control (capsid recovery in clarified lysate) (HEK293 cells [4]; 0.7M NaCl modifier, LCD): 1.6 fold
Fold improvement over octoxynol-9 and DB control (capsid recovery in clarified lysate) (HEK293 cells [4]; [13]): 2.1 fold

C[C@H](CCC(=O)O)[C@H]1CC[C@H]2[C@@H]3CC[C@@H]4C[C@H](O)CC[C@]4(C)[C@H]3C[C@H](O)[C@]12C [DOC, deoxycholic acid sodium salt]
Fold improvement over octoxynol-9 and DB control (capsid recovery in clarified lysate) (HEK293 cells [4]; [13]): 0.1 fold

Octoxynol-9 [reference compound]
Process demonstrated viral removal or inactivation (Log reduction >1) ([2]; 0.5% octoxynol-9, 90 mins): Demonstrated inactivation
Minimum reduction values Run 1 [2, 14]: ≥4.43 ± 0.28 Log
Minimum reduction values Run 2 [2, 14]: ≥4.19 ± 0.18 Log
Minimum reduction values Run 1 [6]: ≥4.43 ± 0.25 Log
Minimum reduction values Run 2 [6]: ≥4.49 ± 0.27 Log
Process demonstrated viral removal or inactivation (Log reduction >1) [6]: Demonstrated inactivation

— patent publication US20240287470A1 (priority 2023, published 2024)
